Literature values, collected in US20070141100A1, “Drug-eluting biodegradable stent” (priority 2003, published 2007).
“Also recorded” adds a separate entry of the source. Values belong to the compound of their own block, whether it stands above or below them.

What was measured:
neointimal proliferation = details: animal studies, compared with a control bare metal stent
[1] = tested on: renal transplant recipients; details: everolimus trough serum concentrations above 7.8 ng/ml
[2] = tested on: Chinese hamster ovary (CHO-K1) cells; details: in vitro
3T3 fibroblasts = details: in vitro
mice = details: i.v.
[3] = glutaraldehyde used to crosslink materials

solubility in water: poorly soluble in water | rate of thrombocytopenia [1]: 17%
Compound: CO[C@H]1C[C@@H]2CC[C@@H](C)[C@@](O)(O2)C(=O)C(=O)N2CCCC[C@H]2C(=O)O[C@H]([C@H](C)C[C@@H]2CC[C@@H](OCCO)[C@H](OC)C2)CC(=O)[C@H](C)/C=C(\C)[C@@H](O)[C@@H](OC)C(=O)[C@H](C)C[C@H](C)/C=C/C=C/C=C/1C [Everolimus]
reduction of neointimal proliferation (neointimal proliferation): 50%

solubility in water: non-water soluble
Compound: CO[C@H]1C[C@@H]2CC[C@@H](C)[C@@](O)(O2)C(=O)C(=O)N2CCCC[C@H]2C(=O)O[C@H]([C@H](C)C[C@@H]2CC[C@@H](O)[C@H](OC)C2)CC(=O)[C@H](C)/C=C(\C)[C@@H](O)[C@@H](OC)C(=O)[C@H](C)C[C@H](C)/C=C/C=C/C=C/1C [Sirolimus]

solubility in water: practically water insoluble
Compound: CC(=O)O[C@H]1C(=O)[C@@]2(C)[C@H]([C@H](OC(=O)c3ccccc3)[C@]3(O)C[C@H](OC(=O)[C@H](O)[C@@H](NC(=O)c4ccccc4)c4ccccc4)C(C)=C1C3(C)C)[C@]1(OC(C)=O)CO[C@@H]1C[C@@H]2O [Taxol, paclitaxel]

Compound: COC(=O)C1=CO[C@@H](O)[C@@H]2C(CO)=CC[C@H]12 [genipin]
clastogenic response (genotoxicity) [2]: does not cause clastogenic response | cytotoxicity compared with glutaraldehyde (3T3 fibroblasts): substantially less cytotoxic than glutaraldehyde; also recorded: significantly less cytotoxic than glutaraldehyde | LD50 (mice): 382 mg/k

crosslinking concentration giving a persistent foreign-body reaction [3]: above 0.05%
Compound: O=CCCCC=O [glutaraldehyde]
cytotoxic at concentrations greater than (tissue culture): 10-25 ppm | cytotoxic at concentrations as low as (tissue culture; in tissue culture): 3 ppm
